The subject of one experiment is DBA/2 mice. Description: Audiogenic seizure model. Type of experiment: in vivo. Conditions: Mus musculus, po, 1 h, read-out: Seizure suppression. The method, then: The animal model used in this test is a phenotype model for partial seizure (including secondary generalized seizure) and generalized tonic-clonic seizure, and has high clinical predictability. This test was performed in accordance with the report of De Sarro et al (Br J Pharmacol. 1988 February; 93 (2): 247-56. Anticonvulsant effects of some calcium entry blockers in DBA/2 mice. De Sarro G B, Meldrum B S, Nistico G.).
In this test example, the example compounds shown in Tables 3-1 to 3-3 below were used as test compounds.
The test compounds were suspended in 5% gum arabic/distilled water (w/v), and administered by forced oral administration to male and female DBA/2 mice (Japan SLC, Inc., 3 weeks old, 8 per group) at a dose of 30 mg/kg. After one hour of the oral administration of the test compound, each mouse was placed in a transparent acrylic cylinder 30 cm high and 23 cm in diameter, and 30 seconds were allowed for habituation. Then, they were exposed to auditory stimulation (12.6 kHz, 100-110 dB) for 1 minute or until a tonic seizure occurred.
The seizure response was assessed using the following scale, 0: no seizure, 1: wild running, 2: clonic seizure, 3: tonic seizure and 4: respiratory arrest. The maximum response was recorded as the seizure severity score.
The seizure suppression rate for each compound administration group was calculated according to the following formula.
Here, a rate of seizure suppression of 90% or more was expressed as “A”, a rate of seizure suppression of 70% or more and less than 90% was expressed as “B”, and a rate of seizure suppression of 50% or more and less than 70% was expressed as “C”.
For the molecule `Cc1ncccc1-c1cnc(Oc2cc(F)cc(F)c2)nc1` [Example 56], the inhibition in vivo at 30 mg/kg was > 90%.

Staying with this experiment, now noted: Mus musculus; DBA/2 mice, oral, dose 30 mg/kg, auditory stimulation 1 hour after administration; read-out: Seizure suppression.
For `Fc1ccc(Oc2ncc(-c3ccn4cnnc4c3)cn2)cc1` [Example 213], the inhibition in vivo at 30 mg/kg is > 90%.
In the case of `Nc1ccc(-c2cnc(Oc3ccc(F)c(F)c3)nc2)cn1` [Example 85], the inhibition in vivo at 30 mg/kg was > 90%.
`Nc1ccc(-c2cnc(Oc3c(F)cccc3F)nc2)cn1` [Example 52]: the inhibition in vivo at 30 mg/kg was > 90%.
Still for that read-out and setting: for `Nc1ccc(-c2cnc(Oc3ccc(F)cc3F)nc2)cn1` [Example 86] the value was > 90%; for `Cn1ncc2ccc(-c3cnc(Oc4ccc(F)cc4)nc3)nc21` [Example 278], > 90%.
As to `O=C1CCN(c2ccc(Oc3cccc(F)c3)c3ccccc23)C(=O)N1` [Example 345], the inhibition in vivo at 30 mg/kg lay in the range of 50 to 70%.
The same measure, in the same setting: the same measure for `Nc1nc2ccc(-c3cnc(Oc4ccccc4)nc3)cc2s1` [Example 240, 6-(2-Phenoxypyrimidin-5-Yl)Benzo[d]Thiazol-2-Amine]: > 90%; for `Nc1ccc(-c2cnc(Oc3cc(F)cc(F)c3)nc2)nn1` [Example 41]: > 90%; for `c1ccc(Oc2ncc(-c3ccnc4ncccc34)cn2)cc1` [Example 139, 4-(2-Phenoxypyrimidin-5-Yl)-1,8-Naphthyridine]: > 90%.
Same read-out and setting: for `Cn1ncc2ccc(-c3cnc(Oc4cccc(F)c4)nc3)nc21` [Example 277] the value was > 90%.
Same read-out and setting: the same measure for `Clc1cc2c(-c3cnc(Oc4ccccc4)nc3)cccc2cn1` [Example 268]: > 90%.
For `O=C1CCN(c2ccc(Oc3ccc(S(F)(F)(F)(F)F)cc3)cc2)C(=O)N1` [Example 317], the inhibition in vivo at 30 mg/kg was 50 to 70%.
Still for that read-out and setting: for `O=C1CCC(c2cnc(Oc3ccccc3F)nc2)=NN1` [Example 96] the value was > 90%; for `Cc1nc2cc(-c3cnc(Oc4ccc(F)cc4)nc3)ccn2c1C` [Example 207], > 90%.
In the case of `O=C1Cc2cc(-c3cnc(Oc4cccc(F)c4)nc3)ccc2N1` [Example 265], the inhibition in vivo at 30 mg/kg was > 90%.
Take `Nc1ccc(-c2cnc(Oc3cc(F)cc(F)c3)nc2)cn1` [Example 53]: the inhibition in vivo at 30 mg/kg is > 90%.
For `Fc1ccccc1Oc1ncc(-c2ccn3cc(C(F)(F)F)nc3c2)cn1` [Example 217], the inhibition in vivo at 30 mg/kg was > 90%.
The same measure, in the same setting: the same measure for `Nc1ccc(-c2cnc(Oc3ccc(F)cc3)nc2)nn1` [Example 20]: > 90%; for `Fc1cccc(Oc2ncc(-c3ccc4nnc(C(F)(F)F)n4c3)cn2)c1` [Example 281]: > 90%; for `Cc1cn2ccc(-c3cnc(Oc4ccccc4F)nc3)cc2n1` [Example 182]: > 90%.
On the same count and under the same terms, the same measure for `Fc1ccccc1Oc1ncc(-c2ccc3ncnn3c2)cn1` [Example 144]: > 90%; for `c1ccc(Oc2ncc(-c3ccc4cnccc4c3)cn2)cc1` [Example 251]: > 90%.
As for `N#Cc1cccc(Oc2ncc(-c3ccc(N)nc3)cn2)c1` [Example 89], the inhibition in vivo at 30 mg/kg was > 90%.
In the case of `Fc1cccc(Oc2ncc(-c3ccc4ccnn4c3)cn2)c1` [Example 153], the inhibition in vivo at 30 mg/kg was > 90%.
On to `O=c1ccc(-c2cnc(Oc3cc(F)ccc3F)nc2)n[nH]1` [Example 108], for which the inhibition in vivo at 30 mg/kg was > 90%.
Same read-out and setting: the same measure for `Nc1ccc(-c2cnc(Oc3cc(F)ccc3F)nc2)cn1` [Example 84, 5-(2-(2,5-Difluorophenoxy)Pyrimidin-5-Yl)Pyridin-2-Amine]: > 90%; for `Cc1cccc(Oc2ncc(-c3ccc(N)nc3)cn2)c1` [Example 88, 5-(2-(m-Tolyloxy)Pyrimidin-5-Yl)Pyridin-2-Amine]: > 90%; for `O=C1CCN(c2ccc(Cc3ccc(C(F)(F)F)cc3)cc2)C(=O)N1` [Example 342]: 50 to 70%.
`COc1nc(Oc2ccccc2)ncc1-c1ccc2c(c1)CC(=O)N2` [Example 274]: the inhibition in vivo at 30 mg/kg is > 90%.
On the same count and under the same terms, the same measure for `Cc1nc2cc(-c3cnc(Oc4ccccc4)nc3)ccc2s1` [Example 238]: > 90%; for `Fc1ccccc1Oc1ncc(-c2ccc3cncn3c2)cn1` [Example 156]: > 90%; for `O=C1NCCCN1c1cnc(Oc2cccc(F)c2)nc1` [Example 221, 1-(2-(3-Fluorophenoxy)Pyrimidin-5-Yl)Tetrahydropyrimidin-2 (1H)-One]: > 90%.
Still for that read-out and setting: for `COCc1cn2cc(-c3cnc(Oc4ccccc4F)nc3)ccc2n1` [Example 209] the value was > 90%; for `c1ccc(Oc2ncc(-c3ccc4cccnc4c3)cn2)cc1` [Example 244], > 90%; for `OC1CCN(c2cnc(Oc3ccc(F)cc3)nc2)CC1` [Example 228], > 90%.
Same read-out and setting: the same measure for `Fc1ccc(Oc2ncc(-c3ccn4ccnc4c3)cn2)cc1` [Example 132]: > 90%.
In the case of `O=C1CCc2cc(-c3cnc(Oc4ccccc4F)nc3)ccc2N1` [Example 270], the inhibition in vivo at 30 mg/kg is > 90%.
Take `Fc1cccc(Oc2ncc(-c3ccn4cc(C(F)(F)F)nc4c3)cn2)c1` [Example 218]: the inhibition in vivo at 30 mg/kg is > 90%.
With `Fc1ccc(Oc2ncc(N3CCOCC3)cn2)cc1` [Example 225], the inhibition in vivo at 30 mg/kg was > 90%.
As to `Cc1cnc2ccc(-c3cnc(Oc4ccc(F)cc4)nc3)cn12` [Example 193], the inhibition in vivo at 30 mg/kg was > 90%.
Take `Fc1ccc(Oc2ncc(-c3ccc4nccn4n3)cn2)cc1` [Example 126]: the inhibition in vivo at 30 mg/kg is > 90%.
On the same count and under the same terms, for `Nc1cc(-c2cnc(Oc3cccc(F)c3)nc2)ccn1` [Example 78] the value was > 90%; for `Cc1c(-c2cnc(Oc3cccc(F)c3)nc2)ccc2nccn12` [Example 200], > 90%; for `O=C1CCOCCN1c1cnc(Oc2ccc(F)cc2)nc1` [Example 234], > 90%.
`O=C1Cc2c(cccc2-c2cnc(Oc3ccccc3)nc2)N1` [Example 272]: the inhibition in vivo at 30 mg/kg was > 90%.
Still for that read-out and setting: the same measure for `Cc1cc(Oc2ccccc2)ccc1N1CCC(=O)NC1=O` [Example 324]: 50 to 70%.
On the same count and under the same terms, the same measure for `Fc1ccc(Oc2ncc(-c3ccn4nncc4c3)cn2)cc1` [Example 187]: > 90%; for `COc1ccc(-c2cnc(Oc3cc(F)cc(F)c3)nc2)nn1` [Example 19]: > 90%.
`Fc1ccc(Oc2ncc(-c3ccn4cc(C(F)(F)F)nc4c3)cn2)cc1` [Example 219]: the inhibition in vivo at 30 mg/kg was > 90%.
As to `c1ccc(Oc2ncc(-c3ccc4scnc4c3)cn2)cc1` [Example 241], the inhibition in vivo at 30 mg/kg is > 90%.
On to `Cc1c(-c2cnc(Oc3ccc(F)cc3)nc2)ccc2nccn12` [Example 201], for which the inhibition in vivo at 30 mg/kg is > 90%.
On the same count and under the same terms, the same measure for `c1ccc(Oc2ncc(-c3ccc4ncccc4c3)cn2)cc1` [Example 250]: > 90%; for `O=C1COCCN1c1cnc(Oc2cccc(F)c2)nc1` [Example 230]: > 90%.
Still for that read-out and setting: the same measure for `FC(F)c1ccc(-c2cnc(Oc3ccccc3)nc2)cn1` [Example 37]: > 90%.
Turning to `Cc1ccc(-c2cnc(Oc3cc(F)cc(F)c3)nc2)nn1` [Example 17], the inhibition in vivo at 30 mg/kg was > 90%.
In the case of `O=c1ccc(-c2cnc(Oc3ccc(F)cc3F)nc2)n[nH]1` [Example 109], the inhibition in vivo at 30 mg/kg is > 90%.
Regarding `Fc1cccc(Oc2ncc(-c3ccnnc3)cn2)c1` [Example 32], the inhibition in vivo at 30 mg/kg is > 90%.
For `Nc1nccc(-c2cnc(Oc3ccccc3)nc2)n1` [Example 75], the inhibition in vivo at 30 mg/kg was > 90%.
Take `COc1ccc(-c2cnc(Oc3cc(F)ccc3F)nc2)nn1` [Example 63, 3-(2-(2,5-Difluorophenoxy)Pyrimidin-5-Yl)-6-Methoxypyridazine]: the inhibition in vivo at 30 mg/kg was > 90%.
With `c1ccc(Oc2ncc(-c3cnc4[nH]ncc4c3)cn2)cc1` [Example 133], the inhibition in vivo at 30 mg/kg is > 90%.
In the case of `Fc1cccc(Oc2ncc(-c3cn4ccnc4cn3)cn2)c1` [Example 150], the inhibition in vivo at 30 mg/kg is > 90%.
The same measure, in the same setting: for `Fc1cccc(Oc2ncc(-c3ccc4nncn4n3)cn2)c1` [Example 291] the value was > 90%; for `O=C1CCC(c2cnc(Oc3cccc(F)c3)nc2)=NN1` [Example 94, 6-(2-(3-Fluorophenoxy)Pyrimidin-5-Yl)-4,5-Dihydropyridazin-3 (2H)-One], > 90%.
Still for that read-out and setting: for `Fc1cccc(Oc2ncc(-c3ccn4nncc4c3)cn2)c1` [Example 186] the value was > 90%; for `Fc1ccc(Oc2ncc(-c3ccc4ccnn4c3)cn2)cc1` [Example 154], > 90%.
Still for that read-out and setting: the same measure for `c1ccc(Oc2ncc(-c3cccc4ccncc34)cn2)cc1` [Example 249]: > 90%.
Consider `Cc1cc(Oc2cccc(C(F)(F)F)c2)ccc1N1CCC(=O)NC1=O` [Example 335], for which the inhibition in vivo at 30 mg/kg fell in the range of 70 to 90%.

These data come from patent US12391674B2, “Heterocyclic compounds for the treatment of epilepsy” (OTSUKA PHARMACEUTICAL CO., LTD., priority 2018, dated 2025).
